Measurements from patent US20110038885A1, “CHEMOKINE ANALOGS” (priority 2007, published 2011).
Numbered stars: 1 amine (or outer) side, 2 acyl side, 3 side chain; on linkers, the order of the positions; unused ones are H or OH. Bridge positions count the residues as written; N and C are the ends. Square brackets hold non-standard residues; d marks the D form. Peptide text beside a SMILES is read from it. * marks the point of attachment. Benzoyl(4-Ph) = O=C(c1ccc(-c2ccccc2)cc1)*; Phenylacetyl(4-Me) = Cc1ccc(CC(=O)*)cc1; Glutaryl = O=C(CCCC(=O)[*:2])[*:1]; 1Naphthoyl = O=C(c1cccc2ccccc12)*; 2Naphthoyl = O=C(c1ccc2ccccc2c1)*; pGlu = O=C1CC[C@@H](C(=O)O)N1; Suc = O=C(CCC(=O)[*:2])[*:1]; X4 = O=C(c1cc2ccccc2[nH]1)*; hCys = N[C@@H](CCS)C(=O)O; Isobutyryl = CC(C)C(=O)*; Orn = NCCC[C@H](N)C(=O)O; Dap = NC[C@H](N)C(=O)O; Piv = CC(C)(C)C(=O)*; Butyryl = CCCC(=O)*; Bz = O=C(c1ccccc1)*; Ahx = NCCCCCC(=O)O; GABA = NCCCC(=O)O; βAla = NCCC(=O)O

Test system: MCP-1
Assay: In vitro chemotaxis (trans-well migration) v MCP-1
Format: cell-based, human
Protocol: To determine whether an agent inhibits a chemokine-induced activity, such as macrophage recruitment, varying amounts of the agent are mixed with cells in the presence of a known chemoattractant. For example, a range of known concentrations of an agent, e.g., a chemokine peptide, is incubated with a defined number (e.g., 10^4-10^6) of human THP-1 monocyte cells in individual wells of the top compartment of a trans-well plate. Chemokine, at a concentration known to cause significant migration of THP-1 cells in the trans-well migration assay, is placed in the lower compartment of a trans-well plate. Cells are then incubated at 37° C. for a period sufficient to allow migration, e.g., 4 hours. After incubation, the cells are gently removed from the top of the filter with a pipette, 20 μl of 20 mM EDTA in simple PBS is added into each top well, and incubated for 20 minutes at 4° C. The filter is carefully flushed with media using a gentle flow, and removed. A standard curve consisting of a two-fold dilution series of THP-1 cells (in 29 μl) is placed to accurately quantify the number of cells that have migrated. Migrated cells are stained with 3 μl of MTT stock dye solution which is added directly into each well (5 mg/ml in RPMI-1640 without phenol red) (Sigma Chemical Co., St. Louis, Mo., USA) and incubated at 37° C. for 4 hours. The media is carefully aspirated from each well, and the converted dye is solubilized by 20 μl of DMSO. Absorbance of converted dye is measured at a wavelength of 595 nm using an ELISA plate reader. The number of migrated cells in each well is then determined by interpolation of the standard curve (see also Imai et al., J. Biol. Chem., 272:15036, 1997). Any method suitable for counting cells can be used, for example, counting with a hemocytometer, incubation of the cells with MTT (see above), or FACS analysis. A negative control assay is also performed, using TGFβ or another non-chemokine chemoattractant (e.g., IL1β or TNFα). To assess whether the agent is cytotoxic, the same concentrations of agent are incubated with THP-1 cells. Agents which 1) are not cytotoxic at levels which inhibit migration, 2) are ineffective at inhibiting the negative control-induced migration, and 3) reduce or inhibit chemokine-induced THP-1 migration, are agents which fall within the scope of the invention.

| SMILES | EC50 |
| --- | --- |
| CC[C@H](C)[C@@H]1NC(=O)[C@H](Cc2c[nH]c3ccccc23)NC(=O)[C@@H](N)CSSC[C@@H](C(N)=O)NC(=O)[C@H](CCC(N)=O)NC1=O [Example 2, c(Cys-Trp-Ile-Gln-Cys)-NH2] (H-CWIQC-NH2; disulfide 1-5) | 7 nM |
| CC[C@H](C)[C@@H]1NC(=O)[C@H](Cc2c[nH]c3ccccc23)NC(=O)[C@H](CCCCN)NC(=O)[C@@H](NC(=O)[C@@H](CCC(N)=O)NC(C)=O)CSSC[C@@H](C(N)=O)NC(=O)[C@H](CCC(N)=O)NC1=O [Example 3, Ac-DGln-c(Cys-Lys-Trp-Ile-Gln-Cys)-NH2] (Ac-[dQ]CKWIQC-NH2; disulfide 2-7) | 6 nM |
| CC[C@H](C)[C@@H]1NC(=O)[C@H](Cc2c[nH]c3ccccc23)NC(=O)[C@H](CCCCN)NC(=O)[C@@H](NC(=O)C(C)C)CC(=O)NC[C@@H](C(N)=O)NC(=O)[C@H](CCC(N)=O)NC1=O [Example 6, Isobutyryl-c(Asp-Lys-Trp-Ile-Gln-Dap)-NH2] (Isobutyryl-DKWIQ[Dap]-NH2; lactam 1-6) | 5 nM |
| CC[C@H](C)[C@@H]1NC(=O)[C@H](Cc2c[nH]c3ccccc23)NC(=O)[C@H](CCCCN)NC(=O)[C@@H](NC(=O)C(C)C)CNC(=O)CC[C@@H](C(N)=O)NC(=O)[C@H](CCC(N)=O)NC1=O [Example 7, Isobutyryl-c(Dap-Lys-Trp-Ile-Gln-Glu)-NH2] (Isobutyryl-[Dap]KWIQE-NH2; lactam 1-6) | 5 nM |
| CC[C@H](C)[C@@H]1NC(=O)[C@H](Cc2c[nH]c3ccccc23)NC(=O)[C@H](CCCCN)NC(=O)CCCC(=O)NCCC[C@@H](C(N)=O)NC(=O)[C@H](CCC(N)=O)NC1=O [Example 8, c(Glutaryl-Lys-Trp-Ile-Gln-Orn)-NH2] (KWIQ[Orn]-NH2; linker N-5 via Glutaryl) | 5 nM |
| CC[C@H](C)[C@@H]1NC(=O)[C@H](Cc2c[nH]c3ccccc23)NC(=O)[C@H](CCCCN)NC(=O)[C@@H](NC(=O)[C@@H]2CCC(=O)N2)CSSC[C@@H](C(N)=O)NC(=O)[C@H](CCC(N)=O)NC1=O [Example 52, pGlu-c(Cys-Lys-Trp-Ile-Gln-Cys)-NH2] ([pGlu]CKWIQC-NH2; disulfide 2-7) | 25 nM |
| CCCC(=O)N[C@H]1CSSC[C@@H](C(N)=O)NC(=O)[C@H](CCC(N)=O)NC(=O)[C@H]([C@@H](C)CC)NC(=O)[C@H](Cc2c[nH]c3ccccc23)NC(=O)[C@H](CCCCN)NC1=O [Example 56, nButyryl-c(Cys-Lys-Trp-Ile-Gln-Cys)-NH2] (Butyryl-CKWIQC-NH2; disulfide 1-6) | 25 nM |
| CC[C@H](C)[C@@H]1NC(=O)[C@H](Cc2c[nH]c3ccccc23)NC(=O)[C@H](CCCCN)NC(=O)[C@@H](NC(=O)C(C)C)CSSC[C@@H](C(N)=O)NC(=O)[C@H](CCC(N)=O)NC1=O [Example 58, Isobutyryl-c(Cys-Lys-Trp-Ile-Gln-Cys)-NH2] (Isobutyryl-CKWIQC-NH2; disulfide 1-6) | 8 nM |
| NCCCC[C@@H]1NC(=O)CCNC(=O)C[C@@H](C(N)=O)NC(=O)[C@H](CCC(N)=O)NC(=O)[C@H](Cc2c[nH]c3ccccc23)NC1=O [Example 59, c((βA1a-Lys-Trp-Gln-Asp)-NH2] ([βAla]KWQD-NH2; lactam N-5) | 25 nM |
| CC[C@H](C)[C@@H]1NC(=O)[C@H](Cc2c[nH]c3ccccc23)NC(=O)[C@H](CCCCN)NC(=O)CCCNC(=O)CC[C@@H](C(N)=O)NC(=O)[C@H](CCC(N)=O)NC1=O [Example 61, c(Gaba-Lys-Trp-Ile-Gln-Glu)-NH2] ([GABA]KWIQE-NH2; lactam N-6) | 25 nM |
| CC[C@H](C)[C@@H]1NC(=O)[C@H](Cc2c[nH]c3ccccc23)NC(=O)[C@H](CCCCN)NC(=O)[C@@H](NC(C)=O)CC(=O)NCCCC[C@@H](C(N)=O)NC(=O)[C@H](CCC(N)=O)NC1=O [Example 64, Ac-c(Asp-Lys-Trp-Ile-Gln-Lys)-NH2] (Ac-DKWIQK-NH2; lactam 1-6) | 20 nM |
| CC[C@H](C)[C@@H]1NC(=O)[C@H](Cc2c[nH]c3ccccc23)NC(=O)[C@H](CCCCN)NC(=O)[C@@H](NC(=O)c2ccc(-c3ccccc3)cc2)CSSC[C@@H](C(N)=O)NC(=O)[C@H](CCC(N)=O)NC1=O [Example 67, 4-Biphenylcarboxyl-c(Cys-Lys-Trp-Ile-Gln-Cys)-NH2] ({Benzoyl(4-Ph)}-CKWIQC-NH2; disulfide 1-6) | 8 nM |
| CC[C@H](C)[C@@H]1NC(=O)[C@H](Cc2c[nH]c3ccccc23)NC(=O)[C@H](CCCCN)NC(=O)[C@@H](NC(=O)c2ccc3ccccc3c2)CSSC[C@@H](C(N)=O)NC(=O)[C@H](CCC(N)=O)NC1=O [Example 69, 2-Naphthoyl-c(Cys-Lys-Trp-Ile-Gln-Cys)-NH2] (2Naphthoyl-CKWIQC-NH2; disulfide 1-6) | 15 nM |

Further lines, results first:

| EC50 | SMILES |
| --- | --- |
| 20 nM | CC[C@H](C)[C@@H]1NC(=O)[C@H](Cc2c[nH]c3ccccc23)NC(=O)[C@H](CCCCN)NC(=O)CSCC[C@@H](C(N)=O)NC(=O)[C@H](CCC(N)=O)NC1=O [Example 4, (Ac=Lys=Trp=Ile=Gln=hCyc)=NH2] ({CH2CO}-KWIQ[hCys]-NH2; thioether N-5) |
| 5 nM | CC[C@H](C)[C@@H]1NC(=O)[C@H](Cc2c[nH]c3ccccc23)NC(=O)[C@H](CCCCN)NC(=O)CCCCCNC(=O)C[C@@H](C(N)=O)NC(=O)[C@H](CCC(N)=O)NC1=O [Example 5, c(Ahx-Lys-Trp-Ile-Gln-Asp)-NH2] ([Ahx]KWIQD-NH2; lactam N-6) |
| 15 nM | CC[C@H](C)[C@@H]1NC(=O)[C@H](Cc2c[nH]c3ccccc23)NC(=O)[C@H](CCCCN)NC(=O)[C@@H](NC(=O)c2ccccc2)CSSC[C@@H](C(N)=O)NC(=O)[C@H](CCC(N)=O)NC1=O [Example 57, Benzoyl-c(Cys-Lys-Trp-Ile-Gln-Cys)-NH2] (Bz-CKWIQC-NH2; disulfide 1-6) |
| 30 nM | CC[C@H](C)[C@@H]1NC(=O)[C@H](Cc2c[nH]c3ccccc23)NC(=O)[C@H](CCCCN)NC(=O)CCCNC(=O)C[C@@H](C(N)=O)NC(=O)[C@H](CCC(N)=O)NC1=O [Example 60, c(Gaba-Lys-Trp-Ile-Gln-Asp)-NH2] ([GABA]KWIQD-NH2; lactam N-6) |
| 66 nM | CC[C@H](C)[C@@H]1NC(=O)[C@H](Cc2c[nH]c3ccccc23)NC(=O)[C@H](CCCCN)NC(=O)CCC(=O)NCCC[C@@H](C(N)=O)NC(=O)[C@H](CCC(N)=O)NC1=O [Example 62, c(Succinyl-Lys-Trp-Ile-Gln-Orn)-NH2] (KWIQ[Orn]-NH2; linker N-5 via Suc) |
| 66 nM | CC[C@H](C)[C@@H]1NC(=O)[C@H](Cc2c[nH]c3ccccc23)NC(=O)[C@H](CCCCN)NC(=O)CCC(=O)NCCCC[C@@H](C(N)=O)NC(=O)[C@H](CCC(N)=O)NC1=O [Example 63, c(Succinyl-Lys-Trp-Ile-Gln-Lys)-NH2] (KWIQK-NH2; linker N-5 via Suc) |
| 30 nM | CC[C@H](C)[C@@H]1NC(=O)[C@H](Cc2c[nH]c3ccccc23)NC(=O)[C@H](CCCCN)NC(=O)CSC[C@@H](C(N)=O)NC(=O)[C@H](CCC(N)=O)NC1=O [Example 65, c(Ac-Lys-Trp-Ile-Gln-Cys)-NH2] ({CH2CO}-KWIQC-NH2; thioether N-5) |
| 10 nM | CC[C@H](C)[C@@H]1NC(=O)[C@H](Cc2c[nH]c3ccccc23)NC(=O)[C@H](CCCCN)NC(=O)[C@@H](NC(=O)C(C)(C)C)CSSC[C@@H](C(N)=O)NC(=O)[C@H](CCC(N)=O)NC1=O [Example 66, Trimethylacetyl-c(Cys-Lys-Trp-Ile-Gln-Cys)-NH2] (Piv-CKWIQC-NH2; disulfide 1-6) |
| 30 nM | CC[C@H](C)[C@@H]1NC(=O)[C@H](Cc2c[nH]c3ccccc23)NC(=O)[C@H](CCCCN)NC(=O)[C@@H](NC(=O)c2cccc3ccccc23)CSSC[C@@H](C(N)=O)NC(=O)[C@H](CCC(N)=O)NC1=O [Example 68, 1-Naphthoyl-c(Cys-Lys-Trp-Ile-Gln-Cys)-NH2] (1Naphthoyl-CKWIQC-NH2; disulfide 1-6) |
| 5 nM | CC[C@H](C)[C@@H]1NC(=O)[C@H](Cc2c[nH]c3ccccc23)NC(=O)[C@H](CCCCN)NC(=O)[C@@H](NC(=O)c2cc3ccccc3[nH]2)CSSC[C@@H](C(N)=O)NC(=O)[C@H](CCC(N)=O)NC1=O [Example 70, 2-Indolecarboxyl-c(Cys-Lys-Trp-Ile-Gln-Cys)-NH2] (X4-CKWIQC-NH2; disulfide 1-6) |
| 10 nM | CC[C@H](C)[C@@H]1NC(=O)[C@H](Cc2c[nH]c3ccccc23)NC(=O)[C@H](CCCCN)NC(=O)[C@@H](NC(=O)Cc2ccc(C)cc2)CSSC[C@@H](C(N)=O)NC(=O)[C@H](CCC(N)=O)NC1=O [Example 71, p-Tolylacetyl-c(Cys-Lys-Trp-Ile-Gln-Cys)-NH2] ({Phenylacetyl(4-Me)}-CKWIQC-NH2; disulfide 1-6) |
